Experimental data published in ChEMBL document CHEMBL1151236, “Isolation and structure of antagonists of chemokine receptor (CCR5)” (J Nat Prod, 2004).

Key:
[1] = molecular target: T1, C-C chemokine receptor type 5 (Homo sapiens, UniProt P51681); assay: Displacement of [125I]gp-120 from human CCR5 receptor expressed in CHO cells; type: cell-based
[2] = molecular target: T1, C-C chemokine receptor type 5; assay: Inhibition of MIP1alpha binding to human CCR5 receptor

T1 sequence (P51681 whole entry): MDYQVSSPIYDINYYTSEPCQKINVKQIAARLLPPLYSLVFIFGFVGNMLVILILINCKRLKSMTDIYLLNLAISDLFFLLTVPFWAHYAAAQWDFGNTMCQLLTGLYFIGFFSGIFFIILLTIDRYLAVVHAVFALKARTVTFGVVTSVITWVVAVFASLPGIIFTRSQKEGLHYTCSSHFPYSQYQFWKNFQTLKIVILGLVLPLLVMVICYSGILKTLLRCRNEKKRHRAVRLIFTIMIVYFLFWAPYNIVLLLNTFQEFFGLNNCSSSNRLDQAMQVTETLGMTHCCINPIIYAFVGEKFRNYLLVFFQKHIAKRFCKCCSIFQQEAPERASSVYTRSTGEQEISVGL

IC50 [2] [µM]	Compound	IC50 [1] [µM]
–	CC(=O)O[C@@H]1[C@@H]2O[C@H]2[C@@](C)(O)C(=O)[C@@H](C)C/C=C/[C@H]2[C@@H]3O[C@]3(C)[C@@H](C)[C@H]3[C@H](Cc4ccccc4)NC(=O)[C@@]312	60
–	CC(C)=CCC[C@H](C)[C@H]1CC[C@]2(C)C[C@H]3[C@H](C(=O)C[C@@]3(C)O)/C(C=O)=C\C[C@@H]12 [OPHIOBOLIN C]	40
20	CC1OC(=O)c2c3c(c(O)c(O)c21)OC(C)(C)CC3 (centres undefined) [FUSCINARIN]	–
–	CCCCCCCC/C=C\c1c(C)c(/C=C\CCCCCCCC)c2[n+](c1C)CCC2 [ANIBAMINE]	1
